Test results as given in patent US5032514A, “Metabolic pathway engineering to increase production of ascorbic acid intermediates” (Genentech, Inc., priority 1988, dated 1991).

Assays:
[1] = test system: 5-KDG reductase; test: induction of 5-keto reductase activity by carbohydrates in LB media; assay type: cell-based, E. herbicola 21998tkrAΔ3; settings: compound as inducer in LB media
[2] = test system: 2-ketoaldonate reductase [2KR(B)]; test: induction of 2-keto reductase activity by carbohydrates in LB media; assay type: cell-based, E. herbicola 21998tkrAΔ3; settings: compound as inducer in LB media
Source text: The fact that idonate was still produced in the tkrA^- mutant led to the discovery of a second 2-ketoaldonate reductase [2KR(B)], encoded by an inducible tkrB gene. This protein can be purified from the tkrAΔ3 strain and the gene has been cloned (see below). Evidence that 2KR(A) and 2KR(B) are in fact different enzymes is based on observed differences in protein sequence, molecular weight on SDS gels, subunit composition, migration on native gels, kinetic parameters, and gene sequence. 2KR(B) activity is inducible in LB media by a variety of carbohydrates which are listed on Table 1. […] 2-keto reductase activity is found widely elsewhere in nature. We have also identified 2-keto aldonate reductase activity in both E. coli MM294 and Corynebacterium sp. ATCC 31090, neither of which is known to be ketogenic nor produce 2-KLG as a natural product.

[3] = test system: tac promoters; test: modulation of expression level by sequential increases in IPTG; assay type: cell-based, Erwinia herbicola; settings: for 2-KLG + IA/DKG: fractional weight basis relative to 2,5-DKG
Method: Additional experiments were carried out modulating the expression level by sequential increases in IPTG to induce the tac promoters.
In the table below, IPTG is the concentration of isopropylthio-β-galactoside added to the culture medium. Enzyme activity is the sum of the activities of 2,5-DKG reductase and 2-keto aldonate reductase per mg of protein (measured using the Bradford assay, supra). 2-KLG is measured on gram per gram dry cell weight per hour. Finally, the 2-KLG and idonate is measured on a fractional weight basis relative to 2,5-DKG.

[4] = test system: E. herbicola; test: growth on sole carbon source in minimal media; assay type: cell-based
Method: Although a large number of potential metabolic routes from glucose exist, IA is likely produced from either 2-KLG or 5-keto-D-gluconate (5-KDG) catalyzed by a stereospecific pyridine nucleotide-linked reductase. Evidence for both the 5-KDG route in Fusarium species (Takagi, Agric. Biol. Chem. 26:719 [1962]) and the 2-KLG route in a variety of microorganisms has been observed (Makeover et al., supra). Shake flask incubations of whole cells of E. herbicola at 11 OD550 containing 12 g/1 of either 2-KLG or 5-KDG were carried out. Approximately 4 g/1 of IA was produced in flasks containing 2-KLG in 40 hours. The total IA and 2-KLG concentration remained constant throughout the bioconversion. […] Furthermore, E. herbicola was grown using either 5-KDG, G, GA, 2-KDG, or 2,5-DKG as the sole carbon source in minimal media. […] Thus the IA produced in E. herbicola into which an expression vector encoding 2,5-DKG reductase has been transferred is derived from 2-KLG catabolism.

[5] = test system: idonate dehydrogenase; test: membrane bound idonate dehydrogenase assay (crude membrane fraction)
[6] = target: gluconate dehydrogenase; test: membrane bound gluconate dehydrogenase assay (crude membrane fraction); settings: read-out: Ki, competitive inhibition of gluconate dehydrogenase

Row | SMILES | 5 KR Spec. Act. [1] | 2 KR Spec. Act. [2] | further results
1 | O=C(O)C(=O)[C@@H](O)[C@H](O)C(=O)CO [2,5-DKG, 2,5-diketo-D-gluconic acid] | 0.103 µmol/min/mg | 0.122 µmol/min/mg | 
2 | O=C(O)[C@H](O)[C@@H](O)[C@H](O)[C@H](O)CO [GA, D-gluconate] | 0.144 µmol/min/mg | 0.020 µmol/min/mg | 
3 | O=C(CO)[C@@H](O)[C@H](O)[C@H](O)CO [D-fructose] | 0.032 µmol/min/mg | 0.028 µmol/min/mg | 
4 | CC(C)S[C@@H]1O[C@H](CO)[C@H](O)[C@H](O)[C@H]1O [IPTG, isopropylthio-β-galactoside] |  |  | 2-KLG Prod. Rate ([3]; [IPTG] 0.001 mM): 0.000 g/g-DCW-Hr; Enzyme Activity (sum of 2,5-DKG reductase and 2-keto aldonate reductase) ([3]; [IPTG] 0.001 mM): 0.029 umole/mg-P-min; 2-KLG + IA/DKG ([3]; [IPTG] 0.001 mM): 0.000; 2-KLG Prod. Rate ([3]; [IPTG] 0.005 mM): 0.004 g/g-DCW-Hr; Enzyme Activity (sum of 2,5-DKG reductase and 2-keto aldonate reductase) ([3]; [IPTG] 0.005 mM): 0.051 umole/mg-P-min; 2-KLG + IA/DKG ([3]; [IPTG] 0.005 mM): 0.025; 2-KLG Prod. Rate ([3]; [IPTG] 0.050 mM): 0.062 g/g-DCW-Hr; Enzyme Activity (sum of 2,5-DKG reductase and 2-keto aldonate reductase) ([3]; [IPTG] 0.050 mM): 0.100 umole/mg-P-min; 2-KLG + IA/DKG ([3]; [IPTG] 0.050 mM): 0.350; 2-KLG Prod. Rate ([3]; [IPTG] 0.500 mM): 0.126 g/g-DCW-Hr; Enzyme Activity (sum of 2,5-DKG reductase and 2-keto aldonate reductase) ([3]; [IPTG] 0.500 mM): 0.140 umole/mg-P-min; 2-KLG + IA/DKG ([3]; [IPTG] 0.500 mM): 0.530
5 | O=C[C@H](O)[C@@H](O)[C@H](O)[C@H](O)CO [D-glucose] | 0.27 µmol/min/mg | 0.167 µmol/min/mg | 
6 | O=C(O)[C@H](O)[C@@H](O)[C@H](O)[C@@H](O)CO [IA, L-idonic acid] |  |  | growth using compound as the sole carbon source [4]: did not grow; Km ([5]; read-out: apparent Km, idonate dehydrogenase activity, pH 6.0, 25° C.): 20 mM
7 | O=C(CO)[C@@H](O)[C@H](O)[C@@H](O)C(=O)O [5-KDG, 5-keto-D-gluconate] | 0.105 µmol/min/mg | 0.119 µmol/min/mg | 
8 | OCC(O)CO [D-glycerol] | 0.035 µmol/min/mg | 0.024 µmol/min/mg | 
9 | O=C(O)C(=O)[C@@H](O)[C@H](O)[C@@H](O)CO [2-KLG, 2-keto-L-gulonic acid] | 0.061 µmol/min/mg | 0.014 µmol/min/mg | growth using compound as the sole carbon source [4]: did not grow; Ki ([5]; read-out: Ki, competitive inhibition of idonate dehydrogenase, crude membrane fraction): 13 mM
10 | OC[C@@H](O)[C@@H](O)[C@H](O)[C@H](O)CO [D-mannitol] | 0.032 µmol/min/mg | 0.027 µmol/min/mg | 
11 | O=C(O)C(=O)[C@@H](O)[C@H](O)[C@H](O)CO [2-KDG, 2-keto-D-gluconate] | 0.143 µmol/min/mg | 0.045 µmol/min/mg | inhibition of idonate dehydrogenase ([5]; crude membrane fraction): but not idonate dehydrogenase; Ki [6]: > 10 mM
